Reference: patent US7252835B2, “Agent for preventing and/or treating sinusitis” (Ono Pharmaceutical Co., Ltd., priority 1998, dated 2007)
Read-outs that look alike come from different tables or passages of the source.

Experiments:
rats = conditions: both, rat, in vivo
Protocol: (§1) It was confirmed that the compound of the formula (I) or a salt and/or hydrate thereof has sufficiently low toxicity and is sufficiently safe for using it as a medicament. For example, as the acute toxicity of pranlukast hydrate, its minimum lethal dose was 2,000 mg/kg or more (oral or subcutaneous administration), or 30 mg/kg or more (intravenous injection) in mice and rats (both males and females).

mice = conditions: both, mouse, in vivo
Protocol: as §1

[1] = tested on: Normal human paranasal sinus mucosa; assay: Inhibitory effect on the reduction of ciliary movement in paranasal sinus mucosa induced by LTs; type: cell-based; conditions: pranlukast hydrate 1 μM, FIG. 1
Excerpt: Inhibitory Effect of Pranlukast Hydrate on the Reduction of Ciliary Movement in Paranasal Sinus Mucosa Induced by LTs
1) Culturing of Paranasal Sinus Mucosa
Normal human paranasal sinus mucosa obtained at the time of surgical operation of facial trauma or the like was used on the agreement of the patient. The collected paranasal sinus mucosa was thoroughly washed with a culture medium RPMI 1640 (Gibco Life Technologies), cut into 4 mm×4 mm species and then subjected to tissue culture in a culturing chamber of 35 mm×10 mm using RPMI 1640 containing 10% FCS (fetal calf serum). In order to remove mucus and cellular debris, the culture medium was exchanged every other day.
2) Preparation of Test Solutions […]
When a test solution was added to the mucosal tissue, culture medium in the chamber was removed and mucosal tissue was washed with RPMI 1640 and then the test solution (1 ml) was injected. As a control, the ciliary activity was measured in case of injecting only RPMI 1640 into the chamber. By defining the ciliary activity measured just before injection of each test solution (0 minute) as the reference value (100), the ciliary activity measured after injection of each test solution was expressed as percentage (%) of the reference value. […]

[2] = tested on: intractable sinusitis patients; assay: Effect of pranlukast hydrate on intractable sinusitis (clinical, oral administration); type: in vivo, human; conditions: 450 mg/day oral
Protocol: Effect of Pranlukast Hydrate on Intractable Sinusitis
Pranlukast hydrate was orally administered to intractable sinusitis patients (34 persons, average age 54.4 years) at a daily dose of 450 mg (112.5 mg/capsule, 2 capsules per 1 time, twice a day (after every breakfast and supper), every day administration). On the 2 weeks, 4 weeks, 6 weeks and 8 weeks after the administration, 1) improving degree of the nasal mucosa swelling, 2) improving degree of the properties of nasal flow, 3) improving degree of the amount of nasal flow, 4) improving degree of the postnasal discharge, 5) improving degree of the nasal obstruction, 6) improving degree of the nasal flow (frequency of blowing nose) and 7) improving degree of the X-ray shadow of each patient were judged (however, parameters in respective weeks are not constant).

SMILES: O=C(Nc1cccc2c(=O)cc(-c3nnn[nH]3)oc12)c1ccc(OCCCCc2ccccc2)cc1 [pranlukast hydrate, 4-oxo-8-[4-(4-phenylbutoxy)benzoylamino]-2-(tetrazol-5-yl)4H-1-benzopyran·½ hydrate]
- minimum lethal dose (rats; iv): ≥ 30 mg/kg
- minimum lethal dose (rats; po): ≥ 2,000 mg/kg
- minimum lethal dose (rats; sc): ≥ 2,000 mg/kg
- minimum lethal dose (mice; iv): ≥ 30 mg/kg
- minimum lethal dose (mice; po): ≥ 2,000 mg/kg
- minimum lethal dose (mice; sc): ≥ 2,000 mg/kg
- inhibition of reduction of paranasal sinus mucosa ciliary activity induced by LTC4 ([1]; LTC4 0.1 μM, ciliary activity after 6 hours): has the activity to inhibit reduction of paranasal sinus mucosa ciliary activity
- inhibition of reduction of paranasal sinus mucosa ciliary activity induced by LTD4 ([1]; LTD4 0.1 μM, ciliary activity after 4 hours): has the activity to inhibit reduction of paranasal sinus mucosa ciliary activity
- Effective ratio, improving degree of the amount of nasal flow ([2]; on the 2nd week): 52%
- Effective ratio, improving degree of the nasal flow (frequency of blowing nose) ([2]; on the 2nd week): 34%
- Effective ratio, improving degree of the nasal mucosa swelling ([2]; on the 2nd week): 32%
- Effective ratio, improving degree of the nasal obstruction ([2]; on the 2nd week): 19%
- Effective ratio, improving degree of the postnasal discharge ([2]; on the 2nd week): 39%
- Effective ratio, improving degree of the properties of nasal flow ([2]; on the 2nd week): 33%
- Effective ratio, improving degree of the amount of nasal flow ([2]; on the 4th week): 55%
- Effective ratio, improving degree of the nasal flow (frequency of blowing nose) ([2]; on the 4th week): 52%
- Effective ratio, improving degree of the nasal mucosa swelling ([2]; on the 4th week): 29%
- Effective ratio, improving degree of the nasal obstruction ([2]; on the 4th week): 21%
- Effective ratio, improving degree of the postnasal discharge ([2]; on the 4th week): 38%
- Effective ratio, improving degree of the properties of nasal flow ([2]; on the 4th week): 48%
- Effective ratio, improving degree of the amount of nasal flow ([2]; on the 6th week): 68%
- Effective ratio, improving degree of the nasal flow (frequency of blowing nose) ([2]; on the 6th week): 65%
- Effective ratio, improving degree of the nasal mucosa swelling ([2]; on the 6th week): 43%
- Effective ratio, improving degree of the nasal obstruction ([2]; on the 6th week): 35%
- Effective ratio, improving degree of the postnasal discharge ([2]; on the 6th week): 39%
- Effective ratio, improving degree of the properties of nasal flow ([2]; on the 6th week): 52%
- Effective ratio, improving degree of the X-ray shadow ([2]; on the 8th week): 83%
- Effective ratio, improving degree of the amount of nasal flow ([2]; on the 8th week): 65%
- Effective ratio, improving degree of the nasal flow (frequency of blowing nose) ([2]; on the 8th week): 60%
- Effective ratio, improving degree of the nasal mucosa swelling ([2]; on the 8th week): 40%
- Effective ratio, improving degree of the nasal obstruction ([2]; on the 8th week): 29%
- Effective ratio, improving degree of the postnasal discharge ([2]; on the 8th week): 62%
- Effective ratio, improving degree of the properties of nasal flow ([2]; on the 8th week): 53%
- overall clinical effect on subjective symptoms and objective findings of intractable sinusitis ([2]; summary of Tables 1 to 7): has clinical effects on sinusitis
